Measured values taken from ChEMBL document CHEMBL1201862, “PubChem BioAssay data set” (2004).
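These data come from cells grown in 96-well plates and exposed to compound for 48 hours at five concentrations. The concentration for 50% growth inhibition is given as GI50.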 Activity calls are given as the source filed them. Cut-off read from the data, not from the text of the source: active = GI50 up to about 1.1 µM and inactive = higher.

What was measured:
Experiment in all cases: growth of human tumour cells (NCI), 48 h
786-0 = tested on: 786-0
A498 = tested on: A498
A549 = tested on: A549
ACHN = tested on: ACHN
BT-549 = tested on: BT-549
CAKI-1 = tested on: CAKI-1
CCRF-CEM = tested on: CCRF-CEM
COLO 205 = tested on: COLO 205
DU-145 = tested on: DU-145
EKVX = tested on: EKVX
HCC 2998 = tested on: HCC 2998
HCT-116 = tested on: HCT-116
HCT-15 = tested on: HCT-15
HL-60 = tested on: HL-60
HOP-62 = tested on: HOP-62
HOP-92 = tested on: HOP-92
HT-29 = tested on: HT-29
Hs-578T = tested on: Hs-578T
IGROV-1 = tested on: IGROV-1
K562 = tested on: K562
KM12 = tested on: KM12
LOX IMVI = tested on: LOX IMVI
M14 = tested on: M14
MCF7 = tested on: MCF7
MDA-MB-231 = tested on: MDA-MB-231
MDA-MB-435 = tested on: MDA-MB-435
MDA-N = tested on: MDA-N
MOLT-4 = tested on: MOLT-4
NCI-H226 = tested on: NCI-H226
NCI-H23 = tested on: NCI-H23
NCI-H460 = tested on: NCI-H460
NCI-H522 = tested on: NCI-H522
NCI/ADR-RES = tested on: NCI/ADR-RES
OVCAR-3 = tested on: OVCAR-3
OVCAR-4 = tested on: OVCAR-4
OVCAR-5 = tested on: OVCAR-5
OVCAR-8 = tested on: OVCAR-8
PC-3 = tested on: PC-3
RPMI-8226 = tested on: RPMI-8226
RXF 393 = tested on: RXF 393
SF-268 = tested on: SF-268
SF-295 = tested on: SF-295
SF-539 = tested on: SF-539
SK-MEL-28 = tested on: SK-MEL-28
SK-MEL-2 = tested on: SK-MEL-2
SK-MEL-5 = tested on: SK-MEL-5
SK-OV-3 = tested on: SK-OV-3
SN12C = tested on: SN12C
SNB-19 = tested on: SNB-19
SNB-75 = tested on: SNB-75
SR = tested on: SR
SW-620 = tested on: SW-620
T47D = tested on: T47D
TK-10 = tested on: TK-10
U-251 = tested on: U-251
UACC-257 = tested on: UACC-257
UACC-62 = tested on: UACC-62
UO-31 = tested on: UO-31
Malme-3M = tested on: Malme-3M

Measured: GI50

CCCCCCCCCCCCCCNC(=O)CCC(NC(=O)c1ccc(N(C)Cc2cnc3nc(N)nc(N)c3n2)cc1)C(=O)NCCCCCCCCCCCCCC (configuration not stated)
inactive: 786-0 1.28 µM | A498 14.5 µM | A549 5.45 µM | ACHN 6.38 µM | BT-549 12.3 µM | CAKI-1 10.4 µM | COLO 205 11.8 µM | DU-145 13.9 µM | EKVX 23.9 µM | HCC 2998 6.01 µM | HOP-62 9.29 µM | HOP-92 14.8 µM | HT-29 4.13 µM | Hs-578T 8.39 µM | IGROV-1 7.14 µM | KM12 2.45 µM | MCF7 4.48 µM | MDA-MB-231 8.73 µM | NCI-H226 > 52.1 µM | NCI-H23 3.8 µM | NCI-H522 5.04 µM | NCI/ADR-RES 39.8 µM | OVCAR-3 13.4 µM | OVCAR-4 12.5 µM | OVCAR-5 19.2 µM | OVCAR-8 4.36 µM | RPMI-8226 3.07 µM | RXF 393 11.6 µM | SF-268 2.49 µM | SF-295 7.19 µM | SK-MEL-28 13.8 µM | SK-MEL-2 31 µM | SK-MEL-5 1.77 µM | SK-OV-3 10.4 µM | SN12C 9.68 µM | SNB-19 17.1 µM | SNB-75 14.3 µM | T47D 8.51 µM | TK-10 > 39.1 µM | U-251 2.24 µM | UACC-257 10.7 µM | UACC-62 2.63 µM | UO-31 13.8 µM
2.52 µM: HCT-15
active: CCRF-CEM 0.773 µM | HCT-116 0.698 µM | HL-60 0.355 µM | K562 < 0.0185 µM | LOX IMVI 0.437 µM | M14 0.441 µM | MDA-MB-435 0.207 µM | MDA-N 0.244 µM | MOLT-4 0.982 µM | NCI-H460 0.363 µM | PC-3 0.665 µM | SF-539 0.908 µM | SR 0.139 µM | SW-620 0.288 µM

COC(=O)C(CCCCN)NC(=O)C(CCCCN)NC(C)=O.Cc1ccc(C(=O)Nc2ccc(S(=O)(=O)O)c3cc(S(=O)(=O)O)cc(S(=O)(=O)O)c23)cc1NC(=O)c1cccc(NC(=O)Nc2cccc(C(=O)Nc3cc(C(=O)Nc4ccc(S(=O)(=O)O)c5cc(S(=O)(=O)O)cc(S(=O)(=O)O)c45)ccc3C)c2)c1
> 50 µM: HCT-15
inactive: 786-0 > 50 µM | A498 > 50 µM | A549 > 50 µM | ACHN > 50 µM | BT-549 > 50 µM | CAKI-1 > 50 µM | CCRF-CEM > 50 µM | COLO 205 > 50 µM | DU-145 > 50 µM | EKVX > 50 µM | HCC 2998 > 50 µM | HCT-116 > 50 µM | HL-60 > 50 µM | HOP-92 > 50 µM | HT-29 > 50 µM | Hs-578T 39.1 µM | IGROV-1 > 50 µM | K562 > 50 µM | KM12 > 50 µM | LOX IMVI > 50 µM | M14 10.6 µM | MCF7 > 50 µM | MDA-MB-231 16.2 µM | MDA-MB-435 > 50 µM | MDA-N > 50 µM | MOLT-4 > 50 µM | Malme-3M > 50 µM | NCI-H226 > 50 µM | NCI-H23 > 50 µM | NCI-H460 > 50 µM | NCI-H522 > 50 µM | NCI/ADR-RES > 50 µM | OVCAR-3 > 50 µM | OVCAR-4 8.73 µM | OVCAR-8 > 50 µM | PC-3 > 50 µM | RPMI-8226 > 50 µM | RXF 393 > 50 µM | SF-268 > 50 µM | SF-295 > 50 µM | SF-539 > 50 µM | SK-MEL-28 > 50 µM | SK-MEL-2 > 50 µM | SK-MEL-5 > 50 µM | SK-OV-3 > 50 µM | SN12C > 50 µM | SNB-19 > 50 µM | SNB-75 7.59 µM | SR > 50 µM | SW-620 > 50 µM | T47D > 50 µM | U-251 > 50 µM | UACC-257 > 50 µM | UACC-62 > 50 µM | UO-31 > 50 µM

O=C(CCc1ccc(O)c(O)c1)NCCc1ccc(O)c(O)c1
inactive: 786-0 18.6 µM | A498 > 100 µM | A549 > 100 µM | ACHN > 100 µM | BT-549 > 100 µM | CCRF-CEM 27.9 µM | COLO 205 > 100 µM | DU-145 > 100 µM | EKVX > 100 µM | HCC 2998 > 100 µM | HCT-116 42.8 µM | HL-60 26.8 µM | HOP-62 > 100 µM | HOP-92 > 100 µM | HT-29 > 100 µM | Hs-578T > 100 µM | IGROV-1 > 100 µM | K562 31.7 µM | KM12 > 100 µM | LOX IMVI 39.7 µM | M14 > 100 µM | MCF7 27.8 µM | MDA-MB-231 25.6 µM | MDA-MB-435 17.9 µM | MDA-N 18.1 µM | MOLT-4 57.7 µM | Malme-3M > 100 µM | NCI-H226 > 100 µM | NCI-H23 > 100 µM | NCI-H460 > 100 µM | NCI-H522 > 100 µM | NCI/ADR-RES > 100 µM | OVCAR-3 94.2 µM | OVCAR-4 18.5 µM | OVCAR-5 > 100 µM | OVCAR-8 18.3 µM | PC-3 > 100 µM | RPMI-8226 > 100 µM | RXF 393 > 100 µM | SF-268 > 100 µM | SF-295 > 100 µM | SF-539 > 100 µM | SK-MEL-28 > 100 µM | SK-MEL-2 83.9 µM | SK-MEL-5 > 100 µM | SK-OV-3 > 100 µM | SN12C 37.1 µM | SNB-19 > 100 µM | SNB-75 > 100 µM | SR 23.9 µM | SW-620 67.6 µM | T47D > 100 µM | TK-10 > 100 µM | U-251 17.3 µM | UACC-257 > 100 µM | UACC-62 > 100 µM | UO-31 > 100 µM
> 100 µM: HCT-15
